{"source": "patent US20160106719A1", "about": "“Transplantation Adjuvant in Cell Therapy Using Neural Progenitor Cells” (SUMITOMO DAINIPPON PHARMA CO., LTD., priority 2013, published 2016)", "key": {"[1]": {"test_system": "re-aggregated PSA-NCAM+ cells (neural progenitor cells derived from mouse iPS cell line 440A3)", "assay": "In vitro differentiation of mouse iPS cell-derived neural progenitor cells into dopaminergic neurons (immunocytochemistry for marker molecules)", "assay_type": "cell-based", "description": "DMEM contained 1% fetal bovine serum (FBS), 5% knockout serum replacement (KSR; manufactured by Invitrogen), 0.1 mM non-essential amino acids, 1 mM sodium pyruvate, 0.1 mM 2-mercaptoethanol (2-ME; manufactured by Invitrogen), 2000 U/ml leukemia inhibitory factor (manufactured by Invitrogen), and 1.5 μg/ml puromycin. In order to differentiate and induce the iPS cells into neural cells, serum-free floating culture of embryoid bodies-like aggregates (SFEB) was employed. Specifically, aggregates of the 440A3 cells were separated into individual cells by using 0.25% trypsin/1 mM EDTA (ethylenediaminetetraacetic acid), and the resultant cells were seeded in a 96-well low adhesion plate (product name: Lipidure-Coat Plate A-US96, manufactured by NOF Corporation) at a concentration (cell density) of 3000 cells/well. Thereafter, re-aggregation of the 440A3 cells was induced in a differentiation medium containing GMEM (Glasgow Minimum Essential Medium), 5% KSR, 0.1 mM non-essential amino acids, 1 mM sodium pyruvate and 0.1 mM 2-ME, and this day was defined as day 0 (FIG. 1). During this differentiation process, various factors were added to the differentiation medium for inducing midbrain dopaminergic phenotypes as illustrated in FIG. 1. Specifically, from day 3 to day 7 after starting the SFEB, 20 ng/ml of mouse FGF-8b (manufactured by R & D Systems) was added, from day 4 to day 7 after starting the SFEB, 10 ng/ml of recombinant mouse sonic hedgehog (C25I1) N-terminus (manufactured by R & D Systems) was added, and on and after day 7 after starting the SFEB, 1% N-2 supplement (manufactured by Gibco) and 200 nM ascorbic acid were added. The KSR was removed from the differentiation medium on day 7 after starting the SFEB.\nOn day 9 after starting the SFEB, the 440A3 cells were washed with phosphate buffered saline (PBS(-)) twice. Thereafter, the 440A3 cells were dissociated into single cells by five-minute incubation performed at 37° C. by using Accumax (manufactured by Innovate Cell Technologies, product name). The cells were collected with a FACS buffer. The FACS buffer was constituted by PBS(-) containing 2% FBS, 20 mM D-glucose and 1% penicillin/streptomycin (P/S, manufactured by Invitrogen). The collected cells were mechanically dissociated into a single cell suspension by a gentle pipetting operation.\nNext, the resultant cells were incubated with a mouse anti-PSA-NCAM antibody (dilution rate of 1:200, manufactured by Millipore) at 4° C. for about 30 minutes. Thereafter, a washing operation using a centrifuge was performed twice, and the resultant cells were further incubated for 30 minutes with a secondary antibody of a donkey anti-mouse IgG (dilution rate of 1:400, manufactured by Invitrogen) labeled with AlexaFluor 594. Dead cells and cell debris were excluded by using 7-aminoactinomycin-D (7-AAD, manufactured by BD Pharmigen) stain. The remaining living cells were suspended again at a final concentration (cell density) of 1×10^7 cells/ml. Cell sorting was conducted by using a FACSAria II cell sorter (manufactured by Becton Dickinson And Company) equipped with a 488 nm argon laser, a 633 nm helium-neon laser, a 100 μm nozzle and a FACSDiva software program. A PSA-NCAM positive rate was determined on the basis of a negative control not using a primary antibody.\nAfter the cell sorting, in order to induce the reaggregation of the cells, a PSA-NCAM^+ cell group was seeded in a DMEM/F12 medium (manufactured by Wako Pure Chemical Industries, Ltd.) in a 96-well plate at a concentration (cell density) of 20000 cells/well. The DMEM/F12 medium contained 1% N-2 supplement, 200 nM ascorbic acid, 2% B27 supplement (manufactured by Invitrogen), 0.5 mM L-glutamine and 1% P/S. In order to prevent apoptosis, a ROCK inhibitor, Y-27632 (manufactured by Wako Pure Chemical Industries, Ltd.), was used at a concentration of 30 μM during the cell sorting process and the following overnight cultivation. […]"}, "[2]": {"test_system": "TH+ neurons derived from mouse iPS cells", "assay": "In vitro survival of TH+ neurons with caspase 3 expression as index of apoptosis", "assay_type": "cell-based", "conditions": "control 18.0±5.9%; no significant difference among four groups", "description": "After the cell sorting, in order to induce the reaggregation of the cells, a PSA-NCAM^+ cell group was seeded in a DMEM/F12 medium (manufactured by Wako Pure Chemical Industries, Ltd.) in a 96-well plate at a concentration (cell density) of 20000 cells/well. The DMEM/F12 medium contained 1% N-2 supplement, 200 nM ascorbic acid, 2% B27 supplement (manufactured by Invitrogen), 0.5 mM L-glutamine and 1% P/S. In order to prevent apoptosis, a ROCK inhibitor, Y-27632 (manufactured by Wako Pure Chemical Industries, Ltd.), was used at a concentration of 30 μM during the cell sorting process and the following overnight cultivation. On day 10 after starting the SFEB, any one of valproic acid (VPA) (manufactured by Sigma-Aldrich), zonisamide (ZNS) sodium salt (manufactured by Sumitomo Dainippon Pharma Co., Ltd.), 17β estradiol (E2) (manufactured by Sigma-Aldrich), a glial cell line derived neurotrophic factor (GDNF) (manufactured by R & D Systems) and PBS(-) was added to the medium for 4 days. Each of VPA, ZNS and E2 was used at three different concentrations. Specifically, the concentration of VPA was 0.01 mM, 0.1 mM or 1 mM, the concentration of ZNS was 1 μM, 10 μM or 100 μM, and the concentration of E2 was 1 nM, 10 nM or 100 nM. GDNF was added at a concentration of […] to be used as a positive control. […]"}, "[3]": {"test_system": "grafts derived from mouse iPS cells", "assay": "Transplantation experiment of mouse iPS cell-derived dopamine neural progenitor cells into striatum of SD rats (immunohistochemistry of grafts)", "assay_type": "in vivo", "conditions": "four weeks after transplantation", "description": "Ten-week-old Sprague-Dawley rats (SD rats, available from Shimizu Laboratory Supplies Co., Ltd.) were handled in accordance with the Guidelines for Animal Experiments of Kyoto University. Each SD rat was anesthetized, and donor cells were transplanted by stereotaxic injection into striatums on both sides. Two cell aggregates (containing 3.1×10^5 cells on average) obtained on day 9 after starting the SFEB were collected in 1 μl of PBS(-) so as to be used as the donor cells for the transplantation in each tract. To the PBS(-), Y-27632 was added at a final concentration of […]. Thereafter, intraperitoneal injection of VPA (150 mg/kg/day), ZNS sodium salt (30 mg/kg/day), E2 (80 μM/kg/day) or a saline was conducted from two days before transplanting the donor cells until a day of necropsy. For immunosuppression, cyclosporin A (CsA, manufactured by Wako Pure Chemical Industries, Ltd.) was administered to all the SD rats at a daily dose of 10 mg/kg. Four weeks after the transplantation of the donor cells, the brains of the SD rats were washed and fixed by intracardially perfusing 4% paraformaldehyde under deep anesthesia. On the day of necropsy, a blood sample was collected from each SD rat one hour after the final injection of the test compound or CsA. Such a sample was sent to SRL, Inc. (Tokyo, Japan) where the blood concentration of the administered drug (test compound) was measured.\nIn an in vitro experiment, a cell aggregate treated with any of the above-described test compounds on day 14 after starting the SFEB was fixed with 4% paraformaldehyde. Thereafter, the fixed cell aggregate was frozen and sliced into thin sections each having a thickness of 10 μM by using a microtome for immunocytochemistry. On the other hand, in an in vivo experiment (transplantation experiment), the brain of a SD rat or a SCID rat was taken out after the transplantation experiment to be fixed again with 4% paraformaldehyde for 2 days. Thereafter, the fixed brain of the SD rat or SCID rat was cryopreserved in 30% sucrose for 3 days, frozen, and sliced into thin sections each having a thickness of 40 μM for immunohistochemistry. The frozen sections of the sphere (spherical cell mass) and the brain were subjected to a permeabilization and blocking treatment in PBS(-) for 1 hour at room temperature to be used as samples. The PBS(-) contained 0.3% Triton-X and 2% donkey serum. Thereafter, each of the sections was incubated overnight together with a primary antibody at 4° C. Primary antibodies used in this example are a rabbit anti-tyrosine hydroxylase antibody (dilution rate of 1:400, TH; manufactured by Millipore), a mouse anti-TH antibody (dilution rate of 1:200, manufactured by Millipore), a sheep anti-TH antibody (dilution rate of 1:400, manufactured by Millipore), a mouse anti-Tubβ3 antibody (dilution rate of 1:1000, Tuj1; manufactured by Covance Inc.), a rat anti-NURR1 antibody (dilution rate of 1:1000, KAN Research Institute, Inc., Kobe, Japan), a rabbit anti-Ki67 antibody (dilution rate of 1:1000, manufactured by Novocastra: NCL-Ki67p), a rabbit anti-caspase 3 antibody (dilution rate of 1:500, manufactured by Santa Cruz Biotechnology, Inc.), a rat anti-M2M6 antibody (dilution rate of 1:50, manufactured by Developmental Study Hybridoma Bank), a mouse anti-Nestin antibody (dilution rate of 1:50; manufactured by Millipore), a rabbit anti-Pitx3 antibody (dilution rate of 1:500; manufactured by Chemicon International Inc.), a goat […] antibody (dilution rate of 1:500, Foxa2; manufactured by Santa Cruz Biotechnology, Inc.), a mouse anti-human Nuclei antibody (dilution rate of 1:1000; manufactured by Millipore), and a mouse anti-NeuN antibody (dilution rate of 1:500, manufactured by Chemicon International Inc.). After washing with PBS (0.05% Tween-20) three times, the resultant sample was incubated with an Alexa Fluor-conjugated secondary antibody for 1 hour at room temperature. […]"}, "[4]": {"test_system": "grafts derived from human iPS cells", "assay": "Transplantation experiment of human iPS cell-derived dopamine neural progenitor cells into striatum of SCID rats (immunohistochemistry of grafts)", "assay_type": "in vivo", "conditions": "ZNS at a high dose i.p., four weeks after transplantation", "description": "Twelve-week-old SCID rats (produced by Institute of Laboratory Animals, Graduate School of Medicine, Kyoto University) were handled in accordance with the Guidelines for Animal Experiments of Kyoto University. The SCID rats were anesthetized, and donor cells were transplanted by stereotaxic injection into striatums on both sides. Dopamine neural progenitor cells (2.7×10^5 cells on average) prepared from 1039A1 cell, that is, a human iPS cell line, were collected in 2 μl of PBS(-) so as to be used as the donor cells for the transplantation in each tract. To the PBS(-), […] was added at a final concentration of 30 μM. Thereafter, intraperitoneal injection of VPA (150 mg/kg/day or 600 mg/kg/day, which are sometimes designated respectively as a high dose and a low dose), ZNS sodium salt (30 mg/kg/day or 60 mg/kg/day, which are sometimes designated respectively as a high dose and a low dose), or a saline was conducted from two days before transplanting the donor cells until a day of necropsy. Four weeks after the transplantation of the donor cells, the brains of the SCID rats were washed and fixed by intracardially perfusing 4% paraformaldehyde under deep anesthesia. On the day of necropsy, a blood sample was collected from each SCID rat one hour after the final injection of the test compound, and the blood concentration of the drug (test compound) was measured.\nIn an in vitro experiment, a cell aggregate treated with any of the above-described test compounds on day 14 after starting the SFEB was fixed with 4% paraformaldehyde. Thereafter, the fixed cell aggregate was frozen and sliced into thin sections each having a thickness of 10 μM by using a microtome for immunocytochemistry. On the other hand, in an in vivo experiment (transplantation experiment), the brain of a SD rat or a SCID rat was taken out after the transplantation experiment to be fixed again with 4% paraformaldehyde for 2 days. […]"}, "[5]": {"conditions": "ddA or ICI singly added to cells, vs control"}}}
{"smiles": "C[C@]12CC[C@@H]3c4ccc(O)cc4CC[C@H]3[C@@H]1CC[C@@H]2O", "note": "[E2, 17β estradiol]", "values": [{"measurement": "ratio of TH+ cells", "setting": "[1]; E2 10 nM, day 10 to 14, control 5.2±1.1%", "result": "12.2±2.3", "unit": "%"}, {"measurement": "ratio of dopaminergic neurons undergoing apoptosis (TH+ neurons expressing caspase 3)", "setting": "[2]", "result": "low"}]}
{"smiles": "C[C@]12CC[C@@H]3c4ccc(O)cc4C[C@@H](CCCCCCCCC[S+]([O-])CCCC(F)(F)C(F)(F)F)[C@H]3[C@@H]1CC[C@@H]2O", "note": "(stereo partly drawn) [ICI, ICI182780]", "values": [{"measurement": "ratios of increase in the TH+ cells", "setting": "[1]; 2 μM ICI added to 10 nM E2", "result": "remarkably reduced"}, {"measurement": "ratio of TH+ cells", "setting": "[1]; [5]", "result": "not changed as compared with that of the control"}]}
{"smiles": "NS(=O)(=O)Cc1noc2ccccc12", "note": "[ZNS, 1,2-benzisoxazole-3-methanesulfonamide]", "values": [{"measurement": "ratio of the differentiation of the transplanted NPC into neurons (NeuN+)", "setting": "[3]; ZNS sodium salt 30 mg/kg/day i.p., vs control", "result": "almost equivalent to that of a control"}, {"measurement": "ratio of TH+ cells that were FOXA2+", "setting": "[3]; VPA 150 mg/kg/day or ZNS 30 mg/kg/day i.p., control 24.7±9.3%", "result": "80.4±21.1", "unit": "%"}, {"measurement": "number of midbrain dopaminergic neurons (TH+ FOXA2+) in a graft", "setting": "[3]; VPA 150 mg/kg/day or ZNS 30 mg/kg/day i.p., control 97±76 cells", "result": "835±540", "unit": "cells"}, {"measurement": "ratio of TH+ cells that were FOXA2+", "setting": "[4]; control 76.3±9.7%", "result": "91.8±6.2", "unit": "%"}, {"measurement": "number of midbrain dopaminergic neurons (TH+ FOXA2+) in a graft", "setting": "[4]; control 2297±1116 cells", "result": "5889±1821", "unit": "cells"}, {"measurement": "number of TH+ cells in a graft", "setting": "[4]; control 3026±1349 cells", "result": "6480±2145", "unit": "cells"}]}
{"smiles": "C[C@H]1O[C@@H](n2cnc3c(N)ncnc32)C[C@@H]1O", "note": "[ddA, 2,5-dideoxyadenosine]", "values": [{"measurement": "ratios of increase in the TH+ cells", "setting": "[1]; 100 μM ddA added to 0.1 mM VPA", "result": "remarkably reduced"}, {"measurement": "ratio of TH+ cells", "setting": "[1]; [5]", "result": "not changed as compared with that of the control"}]}
